Source: patent publication US20230035723A1, “Treatment of Pancreatic Cancer” (SynCore Biotechnology Co., Ltd., priority 2017, published 2023)
pIC50: −log10 of the molar value. Counter-ions that a name gives are not always drawn. Like-named read-outs stand apart in the source and are kept apart here.

Legend:
PAXF PANC-1 = assay: Cell lines exhibiting drug resistance (IC50); type: cell-based
PAXF 546 = assay: Cell lines exhibiting drug resistance (IC50); type: cell-based
PAXF 1986 = assay: Cell lines exhibiting drug resistance (IC50); type: cell-based
PAXF 1998 = assay: Cell lines exhibiting drug resistance (IC50); type: cell-based
PAXF 2005 = assay: Cell lines exhibiting drug resistance (IC50); type: cell-based
PAXF 2035 = assay: Cell lines exhibiting drug resistance (IC50); type: cell-based
pancreatic cancer [1] = settings: pancreatic cancer patients; P=0.002; cited from earlier work
PAXF CAPAN-2 = assay: Cell lines exhibiting drug resistance (IC50); type: cell-based
PAXF HPAC = assay: Cell lines exhibiting drug resistance (IC50); type: cell-based
PAXF 2059 = assay: Cell lines exhibiting drug resistance (IC50); type: cell-based
pancreatic cancer [2] = settings: phase III study, pancreatic cancer patients; cited from earlier work
[3] = tested on: unresectable pancreatic cancer; settings: phase III study; cited from earlier work
[4] = tested on: metastatic pancreatic cancer; settings: first-line therapy of metastatic pancreatic cancer; cited from earlier work
[5] = tested on: metastatic pancreatic cancer; settings: first-line therapy; cited from earlier work

pIC50 (PAXF PANC-1; Homo sapiens) | pIC50 (PAXF 546; Homo sapiens, PAXF546) | pIC50 (PAXF 1986) | pIC50 (PAXF 1998) | pIC50 (PAXF 2035) | Compound | pIC50 (PAXF PANC-1) | pIC50 (PAXF 546) | also measured
5.49 | 5.90 | 5.65 | 5.13 | 3.98 | O=c1[nH]cc(F)c(=O)[nH]1 [5-Fluorouracil] |  |  | pIC50 (PAXF 2005): 4.99; median overall survival (pancreatic cancer [1]): 4.4 months
7.74 | 8.30 |  |  |  | CC(C)C[C@H](NC(=O)[C@H](Cc1ccccc1)NC(=O)c1cnccn1)B(O)O [Bortezomib] |  |  | 
 |  |  |  |  | N.N.O=C([O-])C1(C(=O)[O-])CCC1.[Pt+2] [Carboplatin] | 4.81 | 4.77 | 
6.80 | 5.33 |  |  |  | Nc1ccn([C@@H]2O[C@H](CO)[C@@H](O)[C@@H]2O)c(=O)n1 [Cytarabine] |  |  | 
 | 6.98 | 8.22 | 7.82 | 8.40 | CC(=O)O[C@@]12CO[C@@H]1C[C@H](O)[C@@]1(C)C(=O)[C@H](O)C3=C(C)[C@@H](OC(=O)[C@H](O)[C@@H](NC(=O)OC(C)(C)C)c4ccccc4)C[C@@](O)([C@@H](OC(=O)c4ccccc4)[C@H]21)C3(C)C [Docetaxel] |  |  | pIC50 (PAXF 2005): 7.00; pIC50 (PAXF 2059): 7.00
7.31 | 6.87 | 7.23 | 5.91 | 6.10 | COc1cccc2c1C(=O)c1c(O)c3c(c(O)c1C2=O)C[C@@](O)(C(=O)CO)C[C@@H]3O[C@H]1C[C@H](N)[C@H](O)[C@H](C)O1 [Doxorubicin HCl] |  |  | pIC50 (PAXF 2005): 6.60; pIC50 (PAXF 2059): 6.88
 |  |  |  |  | O=NN(CCCl)C(=O)NCCO [Elmustin] | 3.43 | 3.14 | 
3.95 | 4.34 | 4.00 | 4.00 | 4.08 | C#Cc1cccc(Nc2ncnc3cc(OCCOC)c(OCCOC)cc23)c1 [Erlotinib HCl] |  |  | pIC50 (PAXF 2005): 4.28
5.83 | 5.13 |  |  |  | COc1cc([C@@H]2c3cc4c(cc3[C@@H](O[C@@H]3O[C@@H]5CO[C@@H](C)O[C@H]5[C@H](O)[C@H]3O)[C@H]3COC(=O)[C@H]23)OCO4)cc(OC)c1O [Etoposide] |  |  | 
5.28 | 7.01 | 8.10 | 6.80 | 5.83 | Nc1ccn([C@@H]2O[C@H](CO)[C@@H](O)C2(F)F)c(=O)n1 [Gemcitabine HCl] |  |  | pIC50 (PAXF CAPAN-2; Homo sapiens): 5.44; pIC50 (PAXF HPAC; Homo sapiens): 6.38; pIC50 (PAXF 2005): 6.41; pIC50 (PAXF 2059): 7.82
7.92 | 6.88 |  |  |  | CC(=O)[C@]1(O)Cc2c(O)c3c(c(O)c2[C@@H](O[C@H]2C[C@H](N)[C@H](O)[C@H](C)O2)C1)C(=O)c1ccccc1C3=O [Idarubicin] |  |  | 
7.34 | 6.36 | 6.69 | 6.93 | 6.84 | CC(=O)O[C@H]1C(=O)[C@@]2(C)[C@H]([C@H](OC(=O)c3ccccc3)[C@]3(O)C[C@H](OC(=O)[C@H](O)[C@@H](NC(=O)c4ccccc4)c4ccccc4)C(C)=C1C3(C)C)[C@]1(OC(C)=O)CO[C@@H]1C[C@@H]2O [Paclitaxel] |  |  | pIC50 (PAXF CAPAN-2; Homo sapiens): 6.35; pIC50 (PAXF HPAC; Homo sapiens): 6.42; pIC50 (PAXF 2005): 6.51; pIC50 (PAXF 2059): 6.58
 |  |  |  |  | Nc1nc2[nH]cc(CCc3ccc(C(=O)N[C@@H](CCC(=O)O)C(=O)O)cc3)c2c(=O)[nH]1 [Pemetrexed, dinatrium] | 4.89 | 6.94 | 
5.07 | 5.13 | 5.37 | 4.88 | 5.62 | CCN(CC)CCNC(=O)c1c(C)[nH]c(/C=C2\C(=O)Nc3ccc(F)cc32)c1C [Sunitinib malate] |  |  | pIC50 (PAXF 2005): 5.15; pIC50 (PAXF 2059): 4.78
7.38 | 7.10 |  |  |  | CC[C@@]1(O)C(=O)OCc2c1cc1n(c2=O)Cc2cc3c(CN(C)C)c(O)ccc3nc2-1 [Topotecan HCl] |  |  | 
5.70 | 4.32 |  |  |  | CS(=O)(=O)OC[C@H](O)[C@@H](O)COS(C)(=O)=O [Treosulfan] |  |  | 
4.79 | 5.27 | 5.03 | 4.97 | 4.94 | CCCS(=O)(=O)Nc1ccc(F)c(C(=O)c2c[nH]c3ncc(-c4ccc(Cl)cc4)cc23)c1F [Vemurafenib] |  |  | pIC50 (PAXF 2005): 5.17; pIC50 (PAXF 2059): 4.94
9.00 | 7.15 |  |  |  | CC[C@]1(O)C[C@@H]2CN(CCc3c([nH]c4ccccc34)[C@@](C(=O)OC)(c3cc4c(cc3OC)N(C)[C@H]3[C@@](O)(C(=O)OC)[C@H](OC(C)=O)[C@]5(CC)C=CCN6CC[C@]43[C@@H]65)C2)C1 [Vinblastine sulfate] |  |  | 
8.52 | 6.61 | 6.52 | 8.10 | 6.34 | CC[C@]1(O)C[C@H]2CN(CCc3c([nH]c4ccccc34)[C@@](C(=O)OC)(c3cc4c(cc3OC)N(C=O)[C@H]3[C@@](O)(C(=O)OC)[C@H](OC(C)=O)[C@]5(CC)C=CCN6CC[C@]43[C@@H]65)C2)C1 [Vincristine sulfate] |  |  | pIC50 (PAXF 2005): 7.35
 |  |  |  |  | CC[C@]1(O)C[C@@H]2CN(CCc3c([nH]c4ccccc34)[C@@](C(=O)OC)(c3cc4c(cc3OC)N(C)[C@H]3[C@@](O)(C(N)=O)[C@H](O)[C@]5(CC)C=CCN6CC[C@]43[C@@H]65)C2)C1 [Vindesin sulfate] | 8.30 | 6.96 | 
 |  |  |  |  | Nc1ccn([C@@H]2O[C@H](CO)[C@@H](O)C2(F)F)c(=O)n1 [gemcitabine] |  |  | median overall survival (pancreatic cancer [1]): 5.6 months; one-year survival (pancreatic cancer [2]): 17%; median overall survival [3]: 8.8 months; median overall survival [4]: 6.8 months; median overall survival [5]: 6.7 months
 |  |  |  |  | Bleomycin sulfate | 6.83 | 4.97 | 
 |  |  |  |  | FOLFIRINOX |  |  | median overall survival [4]: 11.1 months
 |  |  |  |  | Vinorelbine bistartrate | 8.70 | 7.14 | 

Compound | pIC50 (PAXF PANC-1; Homo sapiens) | pIC50 (PAXF 546; Homo sapiens, PAXF546) | pIC50 (PAXF 1986) | pIC50 (PAXF 1998) | pIC50 (PAXF 2035) | pIC50 (PAXF PANC-1) | pIC50 (PAXF 546) | also measured
N.N.[Cl][Pt][Cl] [Cisplatin] |  |  | 5.32 | 4.12 | 4.34 | 5.13 | 4.94 | pIC50 (PAXF CAPAN-2): 4.21; pIC50 (PAXF HPAC): 4.50; pIC50 (PAXF 2005; PAXF 2005): 4.97; pIC50 (PAXF 2059): 4.39
O=NN(CCCl)C(=O)NC1CCCCC1 [Lomustine] | 4.36 | 3.85 |  |  |  |  |  | 
CN(Cc1cnc2nc(N)nc(N)c2n1)c1ccc(C(=O)N[C@@H](CCC(=O)O)C(=O)O)cc1 [Methotrexate Hydrat] |  |  |  | 6.80 |  | 7.42 | 6.89 | pIC50 (PAXF 2005; PAXF 2005): 5.00; pIC50 (PAXF 2059): 7.51
CN(Cc1cnc2nc(N)nc(N)c2n1)c1ccc(C(=O)N[C@@H](CCC(=O)O)C(=O)O)cc1 [Methotrexate] | 5.00 | 7.18 |  |  |  |  |  | 
CO[C@@]12[C@H](COC(N)=O)C3=C(C(=O)C(C)=C(N)C3=O)N1C[C@@H]1N[C@@H]12 [Mitomycin C] |  |  | 6.73 | 6.01 | 6.17 | 5.95 | 6.33 | pIC50 (PAXF 2005; PAXF 2005): 6.56
O=C1c2c(O)ccc(O)c2C(=O)c2c(NCCNCCO)ccc(NCCNCCO)c21 [Mitoxantron 2HCl] |  |  | 7.46 | 6.62 | 7.17 | 8.00 | 6.73 | pIC50 (PAXF 2005; PAXF 2005): 7.80; pIC50 (PAXF 2059): 7.46
O=C1[O][Pt]2([NH][C@@H]3CCCC[C@H]3[NH]2)[O]C1=O [Oxaliplatin] |  |  | 5.79 | 4.46 | 4.00 | 6.00 | 5.91 | pIC50 (PAXF 2005; PAXF 2005): 4.90
